Data on seven compounds can be found in patent US8946189B2, “Transplants” (priority 2007, dated 2015).

For data set [1] the following is noted: oral and/or intravenous, 10, 25, 50 and 100 mg/kg body weight; cited from earlier work.
The subject of data set [2] is vascular smooth muscle cells. The conditions noted are these: cited from earlier work.
The test system of data set [3] is NK(2) and NK(3) receptors. As to conditions: vs NK(1); cited from earlier work.
Another data set concerns the target human NK(1) receptor (Homo sapiens, UniProt P25103). The conditions noted are these: cited from earlier work.
Data set [4] concerns isolated rat aortic rings. The data set is described as follows: Organ bath tension of isolated rat aortic rings (intact and denuded) precontracted with norepinephrine. Format: cell-based. The conditions noted are these: for Tension of aortic rings: after 0.3 uM norepinephrine.
For data set [5] the following is noted: cited from earlier work.
The subject of data set [6] is human saphenous vein rings and rat aortic rings. The class given is cell-based.
The conditions of data set [7]: in vivo; cited from earlier work.

Where “and” joins values, the source holds several entries; their conditions need not be identical. Identical values can stand only once. Entries after “also recorded” stand apart in the source; their conditions may differ.

human NK(1) receptor, sequence (P25103 whole entry): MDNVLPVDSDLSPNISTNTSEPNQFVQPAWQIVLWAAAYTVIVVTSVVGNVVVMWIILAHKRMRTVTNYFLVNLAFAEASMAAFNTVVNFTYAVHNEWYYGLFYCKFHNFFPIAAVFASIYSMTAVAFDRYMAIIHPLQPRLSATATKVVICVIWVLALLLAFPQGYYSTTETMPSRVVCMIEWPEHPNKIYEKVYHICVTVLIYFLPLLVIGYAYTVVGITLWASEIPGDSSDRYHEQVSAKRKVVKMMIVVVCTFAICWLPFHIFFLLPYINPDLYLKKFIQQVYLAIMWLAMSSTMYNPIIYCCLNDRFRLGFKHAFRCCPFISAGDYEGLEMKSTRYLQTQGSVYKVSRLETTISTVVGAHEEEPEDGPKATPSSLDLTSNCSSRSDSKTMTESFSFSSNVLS

Regarding `NC(=O)c1ncn([C@@H]2O[C@H](CO)[C@@H](O)[C@H]2O)c1N` [Acadesine, 5-amino-4-imidazole carboxamide ribonucleoside], the Safety in humans result in data set [1] is given as “safe in humans”.
For `OCCN(CCO)c1nc(N2CCCCC2)c2nc(N(CCO)CCO)nc(N3CCCCC3)c2n1` [Dipyridamole], the “Inhibition of growth of vascular smooth muscle cells” value in data set [2] (75 microg/mL (0.150 mM), Kim et al) is reported as “approximately 90%”. For the same compound, in data set [2] (after drug exposure of only 15 min), the “Duration of sustained antiproliferative effects” value was 48 h.
In general, Ki refers to the dissociation constant of the complex between target and ligand, obtained from inhibition or displacement. In the case of `Cc1cccc(C)c1NC(=O)C[C@H]1CCN(C(=O)c2cc(C(F)(F)F)cc(C(F)(F)F)c2)[C@@H](Cc2ccccc2)C1.O=C(O)C[C@H](O)C(=O)O` (relative stereo) [R116301, (2R-trans)-4-[1-[3,5-bis(trifluoromethyl)benzoyl]-2-(phenylmethyl)-4-piperidinyl]-N-(2,6-dimethylphenyl)-1-acetamide (S)-Hydroxybutanedioate], the “Selectivity toward NK(2) and NK(3) receptors” value in data set [3] is “over 200 fold”. Besides, the Ki on human NK(1) receptor was 0.45 nM.
For the compound `CCN(CC)CC(=O)Nc1c(C)cccc1C` [Lidocaine], the “Concentration at which tension begins to decrease by over 5% relative to the precontracted state” value in data set [4] (denuded rings) and in data set [4] (intact rings) was 200 µM in each case. For the same compound, the “Relaxation (percent tension decrease) relative to the precontracted state” value is reported as 7% in data set [4] (denuded rings, 200 uM); “no change” in data set [4] (intact rings, 10 uM); “no change” in data set [4] (intact rings, 50 uM); 5% in data set [4] (intact rings, 100 uM); 24% in data set [4] (intact rings, 400 uM). Moreover, the “Extent of relaxation, percentage of precontracted norepinephrine tension” value is given as 100.0 ± 0.4% in data set [4] (denuded rings, drug 10 μM); 99.4 ± 0.4% in data set [4] (denuded rings, drug 60 μM); 96.8 ± 0.7% in data set [4] (denuded rings, drug 160 μM); 93.4 ± 0.6% in data set [4] (denuded rings, drug 360 μM); 82.4 ± 1.0% in data set [4] (denuded rings, drug 1060 μM); 75.8 ± 2.0% in data set [4] (denuded rings, drug 1560 μM). Besides, the “Extent of relaxation, percentage of precontracted norepinephrine tension” value in data set [4] (intact rings, drug 10 μM) amounted to 99.7 ± 0.2%; in data set [4] (intact rings, drug 60 μM) it was 97.8 ± 0.7%; in data set [4] (intact rings, drug 160 μM), 96.2 ± 0.6%; in data set [4] (intact rings, drug 360 μM), 91.7 ± 0.5%; in data set [4] (intact rings, drug 660 μM), 84.4 ± 1.2%; in data set [4] (intact rings, drug 1060 μM), 76.2 ± 3.5%. In data set [4] (intact rings, drug 1560 μM), the “Extent of relaxation, percentage of precontracted norepinephrine tension” value is listed as 72.2 ± 3.5%. Besides, the “Tension of aortic rings” value is 3.32 ± 0.12 g in data set [4] (denuded rings, drug 10 μM); 3.31 ± 0.12 g in data set [4] (denuded rings, drug 60 μM); 3.24 ± 0.12 g in data set [4] (denuded rings, drug 160 μM); 3.11 ± 0.12 g in data set [4] (denuded rings, drug 360 μM); 2.92 ± 0.12 g in data set [4] (denuded rings, drug 660 μM); 2.75 ± 0.12 g in data set [4] (denuded rings, drug 1060 μM). Besides, the “Tension of aortic rings” value stood at 2.53 ± 0.13 g in data set [4] (denuded rings, drug 1560 μM); 3.57 ± 0.08 g in data set [4] (intact rings, drug 10 μM); 3.50 ± 0.08 g in data set [4] (intact rings, drug 60 μM); 3.44 ± 0.07 g in data set [4] (intact rings, drug 160 μM); 3.28 ± 0.07 g in data set [4] (intact rings, drug 360 μM); 3.02 ± 0.07 g in data set [4] (intact rings, drug 660 μM). Also, the “Tension of aortic rings” value turned out to be 2.73 ± 0.13 g in data set [4] (intact rings, drug 1060 μM) and 2.59 ± 0.14 g in data set [4] (intact rings, drug 1560 μM). The “Tension expressed as a percent of baseline” value came to 100% in data set [4] (intact rings, 10 uM); 96% in data set [4] (intact rings, 50 uM); 96% in data set [4] (intact rings, 100 uM); 91% in data set [4] (intact rings, 200 uM); 84% in data set [4] (intact rings, 300 uM); 76% in data set [4] (intact rings, 400 uM). Also, in data set [4] (intact rings, 500 uM), the “Tension expressed as a percent of baseline” value was found to be 72%. The “Relaxation relative to the relaxation of intact adenosine alone” value in data set [4] (intact rings, 300 uM) came to 14%; in data set [4] (intact rings, 400 uM), 30%; in data set [4] (intact rings, 500 uM), 30%. In addition, the “Dependence of relaxation on an intact endothelium (denuded vs intact rings)” value in data set [4] is “endothelium independent; also recorded: does not appear to be endothelium dependent”.
For `Nc1ncnc2c1ncn2[C@@H]1O[C@H](CO)[C@@H](O)[C@H]1O` [Adenosine, 6-amino-9-β-D-ribofuranosyl-9H-purine], in data set [5], the “Half life in the blood” value is on record as “about 10 seconds”. Besides, the “Relaxation of denuded rings as percent of the relaxation of intact rings” value amounted to 35% in data set [4] (400 uM) and 44% in data set [4] (500 uM). In addition, in data set [4] (at 400 and 500 uM), the “Greater falls in tension than lidocaine alone” value is “about 30%”. For the same compound, the “Concentration at which tension begins to decrease by over 5% relative to the precontracted state” value in data set [4] (denuded rings) turned out to be 300 µM; in data set [4] (intact rings), 100 µM. In addition, the “Tension expressed as a percent of baseline” value in data set [4] (denuded rings, 10 uM) is 100%; in data set [4] (denuded rings, 50 uM), 100% and 99%; in data set [4] (denuded rings, 100 uM) it was 99% and 98%; in data set [4] (denuded rings, 200 uM), 95% and 93%; in data set [4] (denuded rings, 300 uM), 88%; in data set [4] (intact rings, 10 uM), 99%. The “Tension expressed as a percent of baseline” value was determined as 96% in data set [4] (intact rings, 50 uM); 89% in data set [4] (intact rings, 100 uM); 76% in data set [4] (intact rings, 200 uM); 61% in data set [4] (intact rings, 300 uM); 48% in data set [4] (intact rings, 400 uM); 39% in data set [4] (intact rings, 500 uM). Besides, the “Relaxation (percent tension decrease) relative to the precontracted state” value is recorded as 4% in data set [4] (denuded rings, 200 uM); “no change” in data set [4] (intact rings, 10 uM); “no change” in data set [4] (intact rings, 50 uM). Moreover, the “Extent of relaxation, percentage of precontracted norepinephrine tension” value in data set [4] (denuded rings, drug 10 μM) was found to be 100.3 ± 0.2%; in data set [4] (denuded rings, drug 60 μM), 100.0 ± 0.4%; in data set [4] (denuded rings, drug 160 μM) it was 98.9 ± 0.5%; in data set [4] (denuded rings, drug 360 μM) it was 95.2 ± 1.1%; in data set [4] (denuded rings, drug 660 μM) it was 87.6 ± 2.3%; in data set [4] (denuded rings, drug 1060 μM), 76.6 ± 3.4%. In addition, the “Extent of relaxation, percentage of precontracted norepinephrine tension” value in data set [4] (denuded rings, drug 1560 μM) came to 62.4 ± 4.2%; in data set [4] (intact rings, drug 10 μM), 99.0 ± 0.3%; in data set [4] (intact rings, drug 60 μM), 96.2 ± 0.7%; in data set [4] (intact rings, drug 160 μM), 89.7 ± 1.5%; in data set [4] (intact rings, drug 360 μM) it was 76.3 ± 3.1%; in data set [4] (intact rings, drug 660 μM), 60.7 ± 4.2%. Besides, the “Extent of relaxation, percentage of precontracted norepinephrine tension” value is recorded as 48.5 ± 3.9% in data set [4] (intact rings, drug 1060 μM) and 38.9 ± 2.8% in data set [4] (intact rings, drug 1560 μM). The “Tension of aortic rings” value in data set [4] (denuded rings, drug 10 μM) is recorded as 3.56 ± 0.08 g; in data set [4] (denuded rings, drug 60 μM), 3.55 ± 0.09 g; in data set [4] (denuded rings, drug 160 μM), 3.51 ± 0.09 g; in data set [4] (denuded rings, drug 360 μM), 3.39 ± 0.11 g; in data set [4] (denuded rings, drug 660 μM), 3.12 ± 0.14 g; in data set [4] (denuded rings, drug 1060 μM) it was 2.73 ± 0.17 g. The “Tension of aortic rings” value in data set [4] (denuded rings, drug 1560 μM) is given as 2.23 ± 0.17 g; in data set [4] (intact rings, drug 10 μM) it was 3.65 ± 0.12 g; in data set [4] (intact rings, drug 60 μM), 3.54 ± 0.11 g; in data set [4] (intact rings, drug 160 μM), 3.30 ± 0.09 g; in data set [4] (intact rings, drug 360 μM), 2.81 ± 0.11 g; in data set [4] (intact rings, drug 660 μM), 2.23 ± 0.14 g. Besides, the “Tension of aortic rings” value came out at 1.78 ± 0.13 g in data set [4] (intact rings, drug 1060 μM) and 1.43 ± 0.08 g in data set [4] (intact rings, drug 1560 μM). Also, the “Maximum relaxation relative to the precontracted state” value in data set [4] (intact rings, at 500 uM) stood at 48%. The “Dependence of relaxation on an intact endothelium (denuded vs intact rings)” value in data set [4] was “dependent on an intact endothelium”.
With Botulinum toxin type A, the “Relaxation of vascular smooth muscle” value in data set [6] was “dose dependent relaxation”.
Turning to `CSCC[C@@H]1NC(=O)[C@H](CC(C)C)NC(=O)[C@H](CCCNC(=N)N)NC(=O)[C@H](CO)NC(=O)[C@@H]2CSSC[C@@H]3NC(=O)[C@H](CO)NC(=O)CNC(=O)[C@H]([C@@H](C)O)NC(=O)[C@H](CSSC[C@H](N)C(=O)N[C@@H](CCCCN)C(=O)NCC(=O)N[C@@H](CCCCN)C(=O)NCC(=O)N[C@@H](C)C(=O)N[C@@H](CCCCN)C(=O)N2)NC(=O)[C@H](CSSC[C@@H](C(N)=O)NC(=O)[C@H](CCCCN)NC(=O)CNC(=O)[C@H](CO)NC(=O)[C@H](CCCNC(=N)N)NC3=O)NC(=O)[C@H](CC(=O)O)NC(=O)[C@H](Cc2ccc(O)cc2)NC1=O` [Omega conotoxin MVIIA], in data set [7], the “Potency as an analgesic relative to morphine” value was 100-1000 fold.
